Experimental data: US12171833B2, “Mucoadhesive polymeric drug delivery compositions and methods” (The University of British Columbia, priority 2020, dated 2024)

How the values were obtained:
[1] = In vitro drug release from formulation A (dialysis mini chamber, PBS, 37° C.); format: physicochemical; conditions: 100 mg, PBS pH 7.4, 37° C., up to 30 hours
Description: Formulation A of PLGA 5%, HA 3%, PEG 92% was made up as described in TABLE 8. […] For the protein study the mini chamber was not closed but a small retaining sponge applied. The chamber was placed in 5 mL of PBS (pH 7.4 or PBS containing albumin to increase the solubility of docetaxel) and placed in an incubator at 37° C.

[2] = 30 min IV infusion, cited from earlier work

Q: Which “drug release from paste” value [1] does the source give for `Nc1ccn([C@@H]2O[C@H](CO)[C@@H](O)C2(F)F)c(=O)n1` [gemcitabine] here?
A: Its value is “faster than the other two agents”.

Q: What about the AUC0-inf ([2]; 1250 mg/m^2 (32.1 mg/kg), literature) of the same compound?
A: The AUC0-inf was 12500 ng·h/mL.

Q: And the kel ([2]; 1250 mg/m^2, literature)?
A: Its kel is 3.18 h⁻¹.

Q: What about the “t1/2 (terminal)” value ([2]; 1250 mg/m^2, literature) of the same compound?
A: Its value is 13.8 min.
